Measurements: patent US20170368082A1, “FORMULATIONS OF BRINCIDOFOVIR” (priority 2016, published 2017)

Experiment: Tissue distribution by quantitative whole-body autoradiography (QWBA)
Assay type: in vivo, male Sprague Dawley and Long-Evans rats
Settings: for AUCall Ratio (PO/IV) / Cmax Ratio (PO/IV): 15 mg/kg, Group 7 vs Group 4
Procedure: The study utilized 4 groups of male SD rats (albino), and 3 groups of male LE rats (pigmented); a total of 39 rats. All animals were obtained from Hilltop Lab Animals, Inc. (Scottdale, Pa.). […] Rats in Group 5 were administered a single 2-h IV infusion of [^14C]brincidofovir at a target dose of 2 mg/kg. […] Three dosing formulations (one for high dose IV, one for low dose IV, and one for PO dose) were prepared at QPS on the day of dosing. The IV formulation for Groups 1, 2, 3, and 4 contained a vehicle of 10 mM sodium phosphate buffer in 5% dextrose solution at pH 8.0(±0.1).
Each animal, at their respective termination time points, was euthanized for QWBA analysis immediately after blood collection. One rat per time point per Group was euthanized as listed below.
The blood samples were maintained on wet ice (approximately 4° C.) and then centrifuged to obtain plasma within 1 h of the blood collection time. Centrifuge settings were recorded in the study notebook. Duplicate aliquots of plasma (0.050 mL) were analyzed for radioactivity using direct counting by LSC, and residual plasma was stored at approximately −70° C. and was saved for possible future analysis under a separate study protocol. Residual red blood cells were discarded as radioactive waste.
The pinna, distal limbs, hair, and tail were removed from each frozen carcass and each frozen carcass was embedded in an aqueous suspension of approximately 2% (w/v) carboxymethylcellulose and frozen into a block. The blocks were stored at approximately −20° C. prior to sectioning. Each blocked carcass was mounted on the object stage of a cryomicrotome (Leica CM3600 Cryomacrocut, Nussloch, Germany and Vibratome 9800, St. Louis, Mo.) maintained at approximately −20° C. and internal standards (3), which were plasma fortified with [^14C]-glucose at one concentration (approximately 0.05 μCi/mL), were placed into the frozen blocks, prior to sectioning, and were used for section thickness quality control. A number of whole-body sections (approximately 40 μm thick) were taken in the sagittal plane at various levels of interest using a whole-body cryomicrotome set at −20° C. Sagittal sections (20-50 μm thick) of frozen carcasses were exposed to phosphor imaging plates. Regions of images in tissues were converted to concentrations using standards. All of the major tissues, organs, and biological fluids were represented.
Tissue concentration data was determined for the following tissues and/or contents: adipose (brown and white), adrenal gland, bile (in duct), blood (cardiac), bone, bone marrow, brain (cerebrum, cerebellum, medulla), cecum (and contents), large intestine (and contents), epididymis, esophagus, eye (uvea and lens), Harderian gland, heart, kidney (cortex and medulla), liver, lung, lymph node, pancreas, pituitary gland, prostate gland, salivary gland, seminal vesicles, skeletal muscle, skin (pigmented and non-pigmented), small intestine (and contents), stomach (gastric mucosa and contents), spleen, spinal cord, testis, thymus, thyroid, and urinary bladder (and contents).
The imaging plate and sections were placed in light-tight exposure cassettes, in a copper-lined lead safe, for a 4-day exposure at room temperature. […] Quantification was performed by image densitometry using MCD image analysis software (v. 7.0, Interfocus Imaging Ltd) and a standard curve constructed from the integrated response [i.e., Molecular Dynamics Counts per square millimeter (MDC/mm^2)] and the nominal concentrations of the ^14C-calibration standards. The concentrations of radioactivity were expressed as the μg equivalents of [^14C]brincidofovir per gram sample (μg equiv/g). A lower limit of quantification (LLOQ) was applied to the data (See section 6.7.4).
Tissue concentrations that fell below the LLOQ were identified as being below the quantification limit (BQL). Tissue areas that were not visualized on autoradiographic images were identified as no sample (NS) and reported as BQL.

CCCCCCCCCCCCCCCCOCCCOP(=O)(O)CO[C@H](CO)Cn1ccc(N)nc1=O [[^14C] brincidofovir]
AUCall Ratio (PO/IV) (Adipose (brown)): 0.25 | Cmax Ratio (PO/IV) (Adipose (brown)): 0.18 | AUCall (Adipose (brown), 2 h IV infusion 15 mg/kg, Group 4): 96.6220 μg equiv · h/g | Tissue Concentration (168 h) (Adipose (brown), 2 h IV infusion 15 mg/kg, Group 4, LLOQ 0.036): 0.132 μg equiv/g | Tissue Concentration (168 h) (Adipose (brown), PO 15 mg/kg, Group 7, LLOQ 0.034): 0.037 μg equiv/g | AUCall (Adipose (brown), PO 15 mg/kg, Group 7): 24.3703 μg equiv · h/g | AUCall Ratio (PO/IV) (Adipose (white)): 0.16 | Cmax Ratio (PO/IV) (Adipose (white)): 0.24 | AUCall (Adipose (white), 2 h IV infusion 15 mg/kg, Group 4): 7.1955 μg equiv · h/g | Tissue Concentration (168 h) (Adipose (white), 2 h IV infusion 15 mg/kg, Group 4, LLOQ 0.036): BQL | Tissue Concentration (168 h) (Adipose (white), PO 15 mg/kg, Group 7, LLOQ 0.034): BQL | AUCall (Adipose (white), PO 15 mg/kg, Group 7): 1.1215 μg equiv · h/g | AUCall Ratio (PO/IV) (Adrenal Gland): 0.19 | Cmax Ratio (PO/IV) (Adrenal Gland): 0.28 | AUCall (Adrenal Gland, 2 h IV infusion 15 mg/kg, Group 4): 384.2580 μg equiv · h/g | Tissue Concentration (168 h) (Adrenal Gland, 2 h IV infusion 15 mg/kg, Group 4, LLOQ 0.036): 0.49 μg equiv/g | Tissue Concentration (168 h) (Adrenal Gland, PO 15 mg/kg, Group 7, LLOQ 0.034): 0.058 μg equiv/g | AUCall (Adrenal Gland, PO 15 mg/kg, Group 7): 74.5860 μg equiv · h/g | AUCall Ratio (PO/IV) (Blood (cardiac)): 0.48 | Cmax Ratio (PO/IV) (Blood (cardiac)): 0.21 | AUCall (Blood (cardiac), 2 h IV infusion 15 mg/kg, Group 4): 45.3555 μg equiv · h/g | Tissue Concentration (168 h) (Blood (cardiac), 2 h IV infusion 15 mg/kg, Group 4, LLOQ 0.036): BQL | Tissue Concentration (168 h) (Blood (cardiac), PO 15 mg/kg, Group 7, LLOQ 0.034): BQL | AUCall (Blood (cardiac), PO 15 mg/kg, Group 7): 21.9165 μg equiv · h/g | AUCall Ratio (PO/IV) (Bone Marrow): 0.35 | Cmax Ratio (PO/IV) (Bone Marrow): 0.12 | AUCall (Bone Marrow, 2 h IV infusion 15 mg/kg, Group 4): 197.3860 μg equiv · h/g | Tissue Concentration (168 h) (Bone Marrow, 2 h IV infusion 15 mg/kg, Group 4, LLOQ 0.036): 0.232 μg equiv/g | Tissue Concentration (168 h) (Bone Marrow, PO 15 mg/kg, Group 7, LLOQ 0.034): 0.094 μg equiv/g | AUCall (Bone Marrow, PO 15 mg/kg, Group 7): 68.7413 μg equiv · h/g | AUCall Ratio (PO/IV) (Bone): 0.30 | Cmax Ratio (PO/IV) (Bone): 0.39 | AUCall (Bone, 2 h IV infusion 15 mg/kg, Group 4): 6.1805 μg equiv · h/g | Tissue Concentration (168 h) (Bone, 2 h IV infusion 15 mg/kg, Group 4, LLOQ 0.036): BQL | Tissue Concentration (168 h) (Bone, PO 15 mg/kg, Group 7, LLOQ 0.034): BQL | AUCall (Bone, PO 15 mg/kg, Group 7): 1.8470 μg equiv · h/g | AUCall Ratio (PO/IV) (Brain (cerebellum)): 0.07 | Cmax Ratio (PO/IV) (Brain (cerebellum)): 0.07 | AUCall (Brain (cerebellum), 2 h IV infusion 15 mg/kg, Group 4): 12.1870 μg equiv · h/g | Tissue Concentration (168 h) (Brain (cerebellum), 2 h IV infusion 15 mg/kg, Group 4, LLOQ 0.036): BQL | Tissue Concentration (168 h) (Brain (cerebellum), PO 15 mg/kg, Group 7, LLOQ 0.034): BQL | AUCall (Brain (cerebellum), PO 15 mg/kg, Group 7): 0.8610 μg equiv · h/g | AUCall Ratio (PO/IV) (Brain (cerebrum)): 0.08 | Cmax Ratio (PO/IV) (Brain (cerebrum)): 0.07 | AUCall (Brain (cerebrum), 2 h IV infusion 15 mg/kg, Group 4): 9.1765 μg equiv · h/g | Tissue Concentration (168 h) (Brain (cerebrum), 2 h IV infusion 15 mg/kg, Group 4, LLOQ 0.036): BQL | Tissue Concentration (168 h) (Brain (cerebrum), PO 15 mg/kg, Group 7, LLOQ 0.034): BQL | AUCall (Brain (cerebrum), PO 15 mg/kg, Group 7): 0.7650 μg equiv · h/g | AUCall Ratio (PO/IV) (Brain (medulla)): 0.06 | Cmax Ratio (PO/IV) (Brain (medulla)): 0.06 | AUCall (Brain (medulla), 2 h IV infusion 15 mg/kg, Group 4): 9.7470 μg equiv · h/g | Tissue Concentration (168 h) (Brain (medulla), 2 h IV infusion 15 mg/kg, Group 4, LLOQ 0.036): BQL | Tissue Concentration (168 h) (Brain (medulla), PO 15 mg/kg, Group 7, LLOQ 0.034): BQL | AUCall (Brain (medulla), PO 15 mg/kg, Group 7): 0.5770 μg equiv · h/g | AUCall Ratio (PO/IV) (Cecum): 0.48 | Cmax Ratio (PO/IV) (Cecum): 1.07
